Data as given in patent US20240252670A1, “ANTIBODY DRUG CONJUGATE, PREPARATION METHOD THEREFOR AND APPLICATION THEREOF” (TSINGHUA UNIVERSITY, priority 2021, published 2024).

What was measured:
[1] = tested on: PD-L1 negative Cd274 knockout DC 2.4 cells; assay: Preliminary internalization experiment in DC cells (FACS, 10% FBS); type: cell-based, mouse; settings: Cd274 knockout DC 2.4, 10% FBS, incubation 8 h, pHrodo red labeled antibody
Experimental: (§1) PD-L1 positive wild-type DC 2.4 cells and PD-L1 negative Cd274 knockout DC 2.4 cells were cultured in a 10% FBS culture medium, anti-PD-L1 THIOMAB labeled with pHrodo™ red dye was added after the cell state was stable, and the cells were incubated overnight. The intracellular red fluorescence intensity was then analyzed by FACS to characterize the internalization level of THIOMAB.
(§2) To verify internalization of anti-PD-L1 THIOMAB on DC cells, the inventors acquired two kinds of DC cells, which were Cd274 knockout DC 2.4 cells and wild-type DC 2.4 cells, from the teacher named Tang Haidong of the School of Pharmaceutical Sciences, Tsinghua University. The Cd274 gene was a PD-L1 encoding gene, and the knocked-out DC 2.4 could not express PD-L1 protein, so the first kind of cells was PD-L1 negative DC cells; while wild-type DC 2.4 could express PD-L1, so the second kind of cells was PD-L1 positive DC cells (as shown in FIG. 12). […]
(§3) In preliminary experiments, the inventors added 10% heat-inactivated fetal bovine serum (FBS) as a blocking agent to a culture medium of DC 2.4 cells according to a conventional procedure, and detected the red fluorescence signals in the cells by FACS after incubation for 8 h, and the results are shown in FIG. 13. […]

[2] = tested on: PD-L1 positive wild-type DC 2.4 cells; assay: as above; type: cell-based, mouse; settings: wild-type DC 2.4, 10% FBS, incubation 8 h, pHrodo red labeled antibody
Experimental: as §1, §2, §3

MC38 tumor = assay: Anti-tumor activity and survival in MC38 mouse tumor model; type: in vivo; settings: MC38 mice, i.p.; antibody drugs 150 μg per mouse, D18 25 μg per mouse; schedule Table 1
Text: A. Treatment with ADC HE-S2, single administration of anti-PD-L1 antibody, D18, or anti-PD-L1 THIOMAB, and anti-PD-L1 antibody/D18 combined administration for inhibitory activity against mouse MC38 tumor growth. B. Whole animal survival study. The ordinate of the curve represents the percentage of tumor-bearing mice that remained alive after different days, and the abscissa thereof represents the number of experimental days. C. Treatment with ADC HE-S2, single administration of anti-PD-L1 antibody, D18, or anti-PD-L1 THIOMAB, and anti-PD-L1 antibody/D18 combined administration for inhibitory activity against mouse MC38 tumor growth. Student's t test was used to compare significant differences between the groups, and p<0.001 is represented by ***.
To verify the anti-cancer activity of ADC HE-S2, the inventors first made a mouse model with MC38. After the tumor was loaded, a visible tumor could be observed on the mouse surface for about one week. When the mean tumor tissue volume of the mice reached 100 mm^3, the mice were randomly grouped as follows according to the final type of drug administered: IgG isotype control antibody group (abbreviated as IgG), anti-PD-L1 antibody group (anti-PD-L1), anti-PD-L1 THIOMAB group (Thiomab), D18 group (D18), D18/anti-PD-L1 antibody combination treatment group (anti-PD-L1 & D18), and ADC HE-S2 group (ADC HE-S2), with 7-8 mice per group. The IgG isotype control antibody group, the anti-PD-L1 antibody (i.e., avelumab as described in Example 2) group, and the anti-PD-L1 THIOMAB (i.e., mutant antibody prepared in Example 2) group were administered twice a week via intraperitoneal injection of 150 μg per mouse for each time. The D18 group was administered twice a week via intraperitoneal injection of 25 μg per mouse for each time. In the D18/anti-PD-L1 antibody combination treatment group, the anti-PD-L1 antibody was dosed twice a week, 150 μg per mouse for each time; the D18 was dosed […], 25 μg per mouse for each time; in the ADC HE-S2 group, ADC HE-S2 was dosed once a week via intraperitoneal injection of 150 μg per mouse for each time; the anti-PD-L1 antibody was dosed once a week, staggered from the administration of the ADC, via intraperitoneal injection of 150 μg per mouse for each time.
Dosage: Antibody drugs, administered 150 μg per mouse for each time, and D18, administered 25 μg per mouse for each time. - means no administration on the day. * Only mice with MC38 tumor model were allowed to be administered until the 24th day, and mice with B16 tumor model were no longer administered after the 21st day.

## anti-PD-L1 THIOMAB: mutant avelumab, light chain V205C (SEQ ID NO: 9), heavy chain SEQ ID NO: 4; pHrodo red labeled in internalization tests
[1]
  proportion of red fluorescence positive cells: 52.9%
[2]
  proportion of red fluorescence positive cells: 53.6%
MC38 tumor
  inhibitory activity against MC38 tumor growth: slightly superior to the efficacy of the IgG isotype antibody
